Key:
[1] = logP determination by HPLC on a reversed-phase column (C18), EEC Directive 79/831 Annex V.A8; assay type: physicochemical; conditions: LC-MS in the acidic range, pH 2,7, 0,1 % aqueous formic acid and acetonitrile, 55°C, read-out: logP (HCOOH)
Description: Die Messung der logP Werte erfolgt gemäß EEC Directive 79/831 Annex V.A8 durch HPLC (High Performance Liquid Chromatography) an einer Phasenumkehrsäule (C 18). Temperatur: 55°C.
Die Bestimmung mit der LC-MS im sauren Bereich erfolgt bei pH 2,7 mit 0,1 % wässriger Ameisensäure und Acetonitril (enthält 0,1% Ameisensäure) als Eluenten; linearer Gradient von 10% Acetonitril bis 95% Acetonitril. In der Tabelle logP (HCOOH) genannt.
Die Eichung erfolgt mit unverzweigten Alkan-2-onen (mit 3 bis 16 Kohlenstoffatomen), deren logP-Werte bekannt sind (Bestimmung der logP-Werte anhand der Retentionszeiten durch lineare Interpolation zwischen zwei aufeinander folgenden Alkanonen).

Phaedon cochleariae = Phaedon cochleariae spray test; assay type: in vivo; conditions: foliar, 168 h, after 7 days, sprayed Chinese cabbage leaf discs (Brassica pekinensis) with larvae, 100 % = all beetle larvae killed, read-out: Wirkung
From the text: Lösungsmittel: • 78,0 Gewichtsteile Aceton • 1,5 Gewichtsteile Dimethylformamid Emulgator: Alkylarylpolyglykolether
(§1) Zur Herstellung einer zweckmäßigen Wirkstoffzubereitung löst man 1 Gewichtsteil Wirkstoff mit den angegebenen Gewichtsteilen Lösungsmittel und füllt mit Wasser, welches eine Emulgatorkonzentration von 1000 ppm enthält, bis zum Erreichen der gewünschten Konzentration auf. Zur Herstellung weiterer Testkonzentrationen wird mit emulgatorhaltigem Wasser verdünnt.
Chinakohlblattscheiben (Brassica pekinensis) werden mit einer Wirkstoffzubereitung der gewünschten Konzentration gespritzt und nach dem Abtrocknen mit Larven des Meerrettichblattkäfers (Phaedon cochleariae) besetzt.
Nach 7 Tagen wird die Wirkung in % bestimmt. Dabei bedeutet 100 %, dass alle Käferlarven abgetötet wurden; 0 % bedeutet, dass keine Käferlarven abgetötet wurden.

Myzus persicae = Myzus persicae spray test; assay type: in vivo; conditions: foliar, 120 h, after 5 days, sprayed Chinese cabbage leaf discs (Brassica pekinensis) infested with all stages, 100 % = all aphids killed, read-out: Wirkung
From the text: Lösungsmittel: • 78 Gewichtsteile Aceton • 1,5 Gewichtsteile Dimethylformamid Emulgator: Alkylarylpolyglykolether
as §1
Chinakohlblattscheiben (Brassica pekinensis), die von allen Stadien der Grünen Pfirsichblattlaus (Myzus persicae) befallen sind, werden mit einer Wirkstoffzubereitung der gewünschten Konzentration gespritzt.
Nach 5 Tagen wird die Wirkung in % bestimmt. Dabei bedeutet 100 %, dass alle Blattläuse abgetötet wurden; 0 % bedeutet, dass keine Blattläuse abgetötet wurden.

| chromatographic logP [1] | SMILES | mortality at 500 g/ha (Phaedon cochleariae) [%] | mortality at 500 g/ha (Myzus persicae) [%] |
| --- | --- | --- | --- |
| 4.23 | Cn1c(-c2c(Cl)c3ccc(Cl)cc3n2C)nc2cc(C(F)(F)F)ncc21 [Bsp. V-1, 2-(3,6-Dichlor-1-methyl-indol-2-yl)-3-methyl-6-(trifluormethyl)imidazo[4,5-c]pyridin] |  |  |
| 4.51 | CCSc1c(-c2nc3cc(C(F)(F)F)ncc3n2C)n(C)c2cc(Cl)ccc12 [Bsp. I-2, 2-(6-Chlor-3-ethylsulfanyl-1-methyl-indol-2-yl)-3-methyl-6-(trifluormethyl)imidazo[4,5-c]pyridin] |  |  |
| 3.11 | CCS(=O)(=O)c1c(-c2nc3cc(C(F)(F)F)ncc3n2C)n(C)c2cc(Cl)ccc12 [Bsp. I-1, 2-(6-Chlor-3-ethylsulfonyl-1-methyl-indol-2-yl)-3-methyl-6-(trifluormethyl)imidazo[4,5-c]pyridin] | 100 | 90 |
